# Measured values reported in ChEMBL document CHEMBL1201862, “PubChem BioAssay data set” (2004).
# The source made the active and inactive calls.
# How the values were obtained:
# [1] = target: T1, RNA-binding protein pos-1 (Caenorhabditis elegans, UniProt G5EF15); assay: inhibitors of POS-1/mex-3 RNA binding, dose response, biochemical, fluorescence polarization (AID 1964);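 further: purified POS-1 fused to maltose binding protein made in E. coli; potency of compounds blocking POS-1 binding to fluorescent RNA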
# T1 sequence (G5EF15 whole entry): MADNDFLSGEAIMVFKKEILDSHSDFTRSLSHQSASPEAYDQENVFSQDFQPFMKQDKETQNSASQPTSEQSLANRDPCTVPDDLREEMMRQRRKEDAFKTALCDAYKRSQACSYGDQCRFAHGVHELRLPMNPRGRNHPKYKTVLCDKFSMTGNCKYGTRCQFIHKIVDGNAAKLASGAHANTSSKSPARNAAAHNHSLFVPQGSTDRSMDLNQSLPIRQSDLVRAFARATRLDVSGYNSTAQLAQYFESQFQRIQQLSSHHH
# [2] = target: Glyceraldehyde-3-phosphate dehydrogenase (Homo sapiens, UniProt P04406)
# [3] = target: T2, Zinc finger protein mex-5 (Caenorhabditis elegans, UniProt Q9XUB2); assay: MEX-5/TCR-2 RNA interaction inhibitors, dose response, biochemical, C. elegans, fluorescence polarization (AID 1960)
# T2 sequence (Q9XUB2 whole entry): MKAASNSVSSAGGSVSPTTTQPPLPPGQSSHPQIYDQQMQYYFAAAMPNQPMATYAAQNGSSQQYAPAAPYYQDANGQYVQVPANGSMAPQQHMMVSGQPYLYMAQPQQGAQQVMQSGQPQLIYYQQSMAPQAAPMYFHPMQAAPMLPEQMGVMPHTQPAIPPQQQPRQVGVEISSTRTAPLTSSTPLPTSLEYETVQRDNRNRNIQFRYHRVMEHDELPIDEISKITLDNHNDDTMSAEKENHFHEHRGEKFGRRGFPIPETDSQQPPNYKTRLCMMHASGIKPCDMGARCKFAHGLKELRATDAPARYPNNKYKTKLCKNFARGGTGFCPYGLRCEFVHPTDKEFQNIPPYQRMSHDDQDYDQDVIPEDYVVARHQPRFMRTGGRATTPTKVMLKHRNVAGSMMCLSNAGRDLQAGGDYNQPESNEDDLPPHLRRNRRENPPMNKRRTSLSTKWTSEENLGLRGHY
# [4] = target: Heat shock cognate 71 kDa protein (Homo sapiens, UniProt P11142); assay: In Vitro Hsc70 Dose Response Fluorescence Polarization Assay. [Related pubchem assays: 1072 ]
# Sequence of Heat shock cognate 71 kDa protein (P11142 whole entry): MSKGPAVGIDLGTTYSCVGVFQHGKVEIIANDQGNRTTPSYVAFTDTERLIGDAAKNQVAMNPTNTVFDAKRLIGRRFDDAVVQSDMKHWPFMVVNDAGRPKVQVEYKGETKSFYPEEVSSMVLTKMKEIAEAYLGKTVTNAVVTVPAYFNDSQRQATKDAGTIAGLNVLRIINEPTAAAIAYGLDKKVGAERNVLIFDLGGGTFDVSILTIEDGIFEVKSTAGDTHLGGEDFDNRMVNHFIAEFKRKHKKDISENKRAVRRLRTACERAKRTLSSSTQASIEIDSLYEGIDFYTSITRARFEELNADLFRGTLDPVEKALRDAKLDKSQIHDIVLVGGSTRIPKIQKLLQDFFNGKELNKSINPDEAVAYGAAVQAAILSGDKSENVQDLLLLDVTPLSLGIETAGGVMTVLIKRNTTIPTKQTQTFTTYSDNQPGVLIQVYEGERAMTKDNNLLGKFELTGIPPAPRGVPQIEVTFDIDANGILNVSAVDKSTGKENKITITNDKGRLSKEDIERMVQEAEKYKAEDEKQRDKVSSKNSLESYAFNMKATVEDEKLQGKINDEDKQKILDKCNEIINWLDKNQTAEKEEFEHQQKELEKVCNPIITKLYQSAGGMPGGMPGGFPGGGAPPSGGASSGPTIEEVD
# [5] = target: Heat shock 70 kDa protein 1A (Homo sapiens, UniProt P0DMV8); assay: Hsp70 inhibitors, SAR follow-up, biochemical, fluorescence polarization (AID 1072)
# [6] = target: Potassium voltage-gated channel subfamily KQT member 2 (Rattus norvegicus, UniProt O88943); assay: Mode of action assay - current amplitude concentration response for derivatives of ZTZ240, a potentiator of KCNQ2 potassium channels. [Related pubchem assays: 2258 (Summary assay for the KCNQ2 potentiators.), 2239 (Primary HTS assay for KCNQ2 potentiators with 305606 compounds tested, and 1644 are found to be active.)]; format: functional
# Sequence of Potassium voltage-gated channel subfamily KQT member 2 (O88943 whole entry): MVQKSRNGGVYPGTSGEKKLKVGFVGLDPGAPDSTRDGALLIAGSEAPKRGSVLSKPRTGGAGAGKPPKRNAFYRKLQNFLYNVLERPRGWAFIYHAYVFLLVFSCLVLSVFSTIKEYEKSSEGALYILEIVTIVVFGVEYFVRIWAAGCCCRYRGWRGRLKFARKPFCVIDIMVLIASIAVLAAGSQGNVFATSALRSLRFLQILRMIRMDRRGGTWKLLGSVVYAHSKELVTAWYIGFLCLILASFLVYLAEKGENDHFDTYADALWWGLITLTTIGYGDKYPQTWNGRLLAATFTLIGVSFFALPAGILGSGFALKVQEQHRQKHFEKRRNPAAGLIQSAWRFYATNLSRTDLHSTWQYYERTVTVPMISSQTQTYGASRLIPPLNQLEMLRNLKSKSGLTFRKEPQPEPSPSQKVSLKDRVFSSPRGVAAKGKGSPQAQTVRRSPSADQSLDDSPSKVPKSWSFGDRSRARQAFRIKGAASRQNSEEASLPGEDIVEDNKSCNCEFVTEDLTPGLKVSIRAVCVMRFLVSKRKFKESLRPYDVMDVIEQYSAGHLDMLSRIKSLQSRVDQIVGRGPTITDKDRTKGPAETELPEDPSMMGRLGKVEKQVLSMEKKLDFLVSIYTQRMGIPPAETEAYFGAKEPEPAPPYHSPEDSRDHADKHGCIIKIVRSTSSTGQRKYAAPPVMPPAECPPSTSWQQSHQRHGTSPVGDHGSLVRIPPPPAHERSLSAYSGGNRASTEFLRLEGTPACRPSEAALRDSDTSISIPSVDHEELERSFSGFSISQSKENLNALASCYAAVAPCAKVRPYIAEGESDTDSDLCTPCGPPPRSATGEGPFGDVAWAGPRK
# [7] = test system: Streptococcus sp. 'group A'; assay: growth inhibition of control SK(-) GAS strain, dose response, counter-screen for streptokinase expression inhibitor project, luminescence, kanamycin, BacTiterGlo, confirmation (AID 1900); format: functional, organism-based
# Streptococcus [8] = assay: Luminescence Microorganism-Based Dose Response Follow up to Identify Compounds Cytotoxic to Streptococcus. [Related pubchem assays: 1677 (Project Summary), 1915, 1914, 1902 (Retest at Dose), 1900 (Counter Screen), 1662 (Primary HTS)]; format: functional, organism-based
# Streptokinase A = target: T3, Streptokinase A (Streptococcus pyogenes serotype M1, UniProt P10520); assay: S. pyogenes streptokinase expression inhibitors, potency, dose response, plasminogen activation absorbance, OD405 (AID 1914); format: functional, Streptococcus pyogenes M1 GAS;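 further: secreted streptokinase activity via plasminogen activation per viability signal from cell pellet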
# T3 sequence (P10520 whole entry): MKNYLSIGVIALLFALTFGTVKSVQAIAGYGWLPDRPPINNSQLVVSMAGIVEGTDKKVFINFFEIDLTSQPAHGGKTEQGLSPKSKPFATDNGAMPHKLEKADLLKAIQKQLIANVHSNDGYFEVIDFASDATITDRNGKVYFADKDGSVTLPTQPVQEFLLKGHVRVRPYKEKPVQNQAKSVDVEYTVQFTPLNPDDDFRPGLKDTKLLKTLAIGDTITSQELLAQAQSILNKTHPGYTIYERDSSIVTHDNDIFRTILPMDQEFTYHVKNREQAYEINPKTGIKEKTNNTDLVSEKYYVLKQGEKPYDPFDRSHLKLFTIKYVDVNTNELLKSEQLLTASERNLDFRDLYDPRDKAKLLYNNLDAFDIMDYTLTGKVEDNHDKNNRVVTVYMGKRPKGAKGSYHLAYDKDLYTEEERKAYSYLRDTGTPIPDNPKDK
# [9] = growth suppression of PTEN-null colon cells, dose response, cell-based, HCT116 PTEN knockout (AID 1047); format: functional;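 further: HCT116 colon tumor cells with PTEN knocked out; cells exposed to compound for 60 hours before readout; potency for loss of cell viability measured by luminescence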
# [10] = growth suppression of beta-catenin-knockout colon cells, dose response, cell-based, HCT116, human colon tumor (AID 1045); format: functional;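 further: HCT116 colon tumor cells with beta catenin knocked out; cells exposed to compound for 60 hours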
# Streptococcus [11] = assay: Group A Streptococcus viability loss, dose response, counter-screen for streptokinase expression inhibitor project, luminescence, BacTiterGlo (AID 1915); format: functional, organism-based;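 further: potency for reduction of bacterial viability or growth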
# [12] = Luminescence Cell-Based Dose Retest to Confirm Inhibitors of Cancer Stem Cells. [Related pubchem assays (depositor defined):AID2717, AID2721]; format: functional; details: Homo sapiens
# INS1 = assay: beta cell apoptosis inhibitors, cytokine rescue, dose response, luminescence, retest (AID 449756); format: functional, cell-based; details: Rattus norvegicus;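 further: cell death triggered by IL-1 beta plus TNF-alpha plus IFN-gamma mixture; protective hits raise ATP signal compared with cytokine alone wells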
# [13] = Counterscreen for IDE inhibitors: Luminescence-based cell-based high throughput dose response assay to identify compounds that are cytotoxic to HEK cells. [Related pubchem assays: 434962 (Primary screen (IDE inhibitors in singlicate)), 449730 (Counterscreen (Cytotoxicity in triplicate)), 435028 (Confirmation (IDE inhibitors in triplicate)) …; format: functional; details: HEK293
# [14] = target: T4, Voltage-gated N-type calcium channel alpha-1B subunit/Amyloid beta A4 precursor protein-binding family A member 1 (Homo sapiens, UniProt Q00975+Q02410); format: protein assay
# T4 sequence (Q00975 whole entry): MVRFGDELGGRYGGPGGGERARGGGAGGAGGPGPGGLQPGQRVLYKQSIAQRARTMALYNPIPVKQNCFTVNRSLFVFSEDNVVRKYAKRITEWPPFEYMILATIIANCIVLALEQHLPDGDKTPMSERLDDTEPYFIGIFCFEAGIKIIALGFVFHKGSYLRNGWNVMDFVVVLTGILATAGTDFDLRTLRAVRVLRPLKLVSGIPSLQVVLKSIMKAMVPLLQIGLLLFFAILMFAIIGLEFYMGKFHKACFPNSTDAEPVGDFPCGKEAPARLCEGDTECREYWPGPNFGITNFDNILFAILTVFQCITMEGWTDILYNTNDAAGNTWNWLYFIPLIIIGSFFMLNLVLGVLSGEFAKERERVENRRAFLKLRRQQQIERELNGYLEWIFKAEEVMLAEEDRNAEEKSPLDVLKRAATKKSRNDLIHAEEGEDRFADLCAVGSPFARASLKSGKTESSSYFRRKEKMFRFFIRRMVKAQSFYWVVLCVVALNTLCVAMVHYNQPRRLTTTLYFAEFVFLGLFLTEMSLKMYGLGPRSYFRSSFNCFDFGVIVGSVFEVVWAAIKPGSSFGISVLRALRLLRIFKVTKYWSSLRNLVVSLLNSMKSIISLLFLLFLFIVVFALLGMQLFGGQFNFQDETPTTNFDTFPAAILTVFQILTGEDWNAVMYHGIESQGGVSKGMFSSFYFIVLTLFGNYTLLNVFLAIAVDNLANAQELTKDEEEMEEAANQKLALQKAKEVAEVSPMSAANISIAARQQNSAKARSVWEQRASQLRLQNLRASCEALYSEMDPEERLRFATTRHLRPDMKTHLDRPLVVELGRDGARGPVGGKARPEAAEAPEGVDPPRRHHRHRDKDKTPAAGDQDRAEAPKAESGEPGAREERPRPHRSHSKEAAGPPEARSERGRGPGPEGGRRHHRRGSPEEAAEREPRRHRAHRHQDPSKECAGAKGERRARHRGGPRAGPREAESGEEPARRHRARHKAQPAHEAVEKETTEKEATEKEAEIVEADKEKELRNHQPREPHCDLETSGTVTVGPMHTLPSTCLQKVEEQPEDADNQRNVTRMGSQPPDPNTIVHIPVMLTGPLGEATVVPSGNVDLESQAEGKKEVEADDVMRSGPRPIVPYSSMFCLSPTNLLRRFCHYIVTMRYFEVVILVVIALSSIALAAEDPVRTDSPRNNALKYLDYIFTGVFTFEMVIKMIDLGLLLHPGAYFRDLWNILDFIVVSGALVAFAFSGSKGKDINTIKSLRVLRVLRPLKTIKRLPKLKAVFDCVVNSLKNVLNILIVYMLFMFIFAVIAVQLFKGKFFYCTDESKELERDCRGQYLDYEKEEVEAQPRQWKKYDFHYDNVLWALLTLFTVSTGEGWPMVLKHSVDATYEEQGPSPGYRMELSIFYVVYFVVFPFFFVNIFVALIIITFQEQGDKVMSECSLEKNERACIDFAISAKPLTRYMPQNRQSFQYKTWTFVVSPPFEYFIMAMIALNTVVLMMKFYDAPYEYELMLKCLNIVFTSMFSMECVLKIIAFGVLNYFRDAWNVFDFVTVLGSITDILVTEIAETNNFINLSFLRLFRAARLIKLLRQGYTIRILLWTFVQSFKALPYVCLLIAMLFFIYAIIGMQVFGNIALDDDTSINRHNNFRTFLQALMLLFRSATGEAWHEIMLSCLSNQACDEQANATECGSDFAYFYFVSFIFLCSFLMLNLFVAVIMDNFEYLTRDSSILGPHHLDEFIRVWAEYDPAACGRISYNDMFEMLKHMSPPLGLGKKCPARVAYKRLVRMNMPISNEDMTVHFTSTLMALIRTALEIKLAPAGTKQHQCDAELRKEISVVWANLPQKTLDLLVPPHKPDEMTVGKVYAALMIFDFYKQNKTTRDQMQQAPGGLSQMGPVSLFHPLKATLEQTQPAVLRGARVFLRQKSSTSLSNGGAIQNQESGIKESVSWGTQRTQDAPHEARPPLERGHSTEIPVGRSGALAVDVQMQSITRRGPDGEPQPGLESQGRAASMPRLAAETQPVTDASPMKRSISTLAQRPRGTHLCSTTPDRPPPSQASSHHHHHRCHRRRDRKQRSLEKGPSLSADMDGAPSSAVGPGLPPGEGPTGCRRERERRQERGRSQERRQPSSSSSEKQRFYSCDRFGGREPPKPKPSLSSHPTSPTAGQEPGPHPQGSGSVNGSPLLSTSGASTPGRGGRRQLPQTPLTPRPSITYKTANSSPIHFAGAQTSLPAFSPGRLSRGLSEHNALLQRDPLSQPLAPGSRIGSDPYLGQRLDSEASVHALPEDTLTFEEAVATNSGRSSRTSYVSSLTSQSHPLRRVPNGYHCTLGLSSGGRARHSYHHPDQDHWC
# T4 sequence (Q02410 whole entry): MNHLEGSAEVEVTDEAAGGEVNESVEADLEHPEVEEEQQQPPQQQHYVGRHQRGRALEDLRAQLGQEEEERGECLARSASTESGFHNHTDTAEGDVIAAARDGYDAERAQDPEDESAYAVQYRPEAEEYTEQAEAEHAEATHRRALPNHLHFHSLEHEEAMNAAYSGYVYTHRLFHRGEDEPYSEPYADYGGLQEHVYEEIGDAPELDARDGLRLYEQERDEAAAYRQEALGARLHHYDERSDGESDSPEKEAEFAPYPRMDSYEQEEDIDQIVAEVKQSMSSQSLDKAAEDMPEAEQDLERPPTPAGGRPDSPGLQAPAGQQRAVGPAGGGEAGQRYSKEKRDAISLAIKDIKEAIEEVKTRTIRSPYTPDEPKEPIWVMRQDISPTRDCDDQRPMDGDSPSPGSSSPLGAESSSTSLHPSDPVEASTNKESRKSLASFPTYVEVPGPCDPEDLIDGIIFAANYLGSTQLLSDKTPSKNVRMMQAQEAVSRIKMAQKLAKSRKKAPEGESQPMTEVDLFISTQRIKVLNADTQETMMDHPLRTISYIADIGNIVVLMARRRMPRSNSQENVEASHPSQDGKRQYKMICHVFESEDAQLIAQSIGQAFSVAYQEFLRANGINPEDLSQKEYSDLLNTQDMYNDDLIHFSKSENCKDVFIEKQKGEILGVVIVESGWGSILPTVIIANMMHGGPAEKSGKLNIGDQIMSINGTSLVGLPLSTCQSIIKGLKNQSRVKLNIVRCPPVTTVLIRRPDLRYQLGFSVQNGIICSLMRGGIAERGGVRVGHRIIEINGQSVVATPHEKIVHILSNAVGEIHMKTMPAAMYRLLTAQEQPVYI
# [15] = target: T4, Voltage-gated N-type calcium channel alpha-1B subunit/Amyloid beta A4 precursor protein-binding family A member 1; format: protein assay; remark: listed apart in the source
# Insulin-degrading enzyme = Insulin-degrading enzyme (Homo sapiens, UniProt P14735); assay: Dose Response: Fluorescence polarization-based cell-based high throughput dose response assay for inhibitors of insulin-degrading enzyme (IDE). [Related pubchem assays: 434962 (Primary screen (IDE inhibitors in singlicate)), 449730 (Counterscreen (Cytotoxicity in triplicate)), 435028 (Confirmation (IDE inhibitors in triplicate)), 434984 (Summary …; format: functional
# HeLa = assay: Cytotoxicity counterscreen assay for transcriptional activators of heat shock protein 70 (Hsp70). [Related pubchem assays: 1203, 1252 ]; format: functional; details: Homo sapiens;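 further: cells exposed to compound for 16 hours before readout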
# BJ [16] = assay: cytotoxicity toward BJ-TERT fibroblasts, dose response, cell-based, RAS-independent, luminescence (AID 1933); format: functional; details: Homo sapiens
# Galanin receptor type 2 = Galanin receptor type 2 (Homo sapiens, UniProt O43603); assay: Dose Response cell-based high-throughput screening assay to identify antagonists of galanin receptor 2 (GALR2). [Related pubchem assays: 828, 866 ]; format: functional
# Sequence of Galanin receptor type 2 (O43603 whole entry): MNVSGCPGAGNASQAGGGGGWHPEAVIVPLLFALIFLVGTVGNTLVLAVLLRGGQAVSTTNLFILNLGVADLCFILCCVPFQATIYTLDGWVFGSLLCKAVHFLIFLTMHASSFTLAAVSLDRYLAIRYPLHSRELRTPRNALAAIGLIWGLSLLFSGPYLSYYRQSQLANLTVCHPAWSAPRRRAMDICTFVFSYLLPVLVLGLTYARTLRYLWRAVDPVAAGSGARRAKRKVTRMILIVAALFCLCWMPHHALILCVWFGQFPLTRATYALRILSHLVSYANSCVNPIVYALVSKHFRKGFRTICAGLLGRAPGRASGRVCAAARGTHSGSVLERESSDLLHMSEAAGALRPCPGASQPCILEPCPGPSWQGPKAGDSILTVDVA
# BJ [17] = assay: cells; format: functional, cell-based; details: Homo sapiens
# [18] = inhibitors of intracellular T. cruzi replication, confirmation, NIH3T3 host cells, beta-gal luminescence (AID 2044); format: functional, cell-based;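 further: intracellular parasites grown in NIH/3T3 mouse fibroblasts as host cells; luminescent beta-galactosidase reporter signal from transgenic T. cruzi replicating inside host cells; inhibitors lower the luminescence signal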
# [19] = microbe, parasite or virus in culture; format: functional; details: Mycobacterium tuberculosis
# [20] = cytotoxicity toward NIH3T3 fibroblasts, dose response, counter-screen, cell-based, ATP luminescence, mouse fibroblasts (AID 2010); format: functional;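 further: cells exposed to compound for about 90 hours before reading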
# BJ [21] = assay: cytotoxicity toward BJ-TERT-LT-ST fibroblasts, dose response, cell-based, RAS-independent, luminescence (AID 1935); format: functional; details: Homo sapiens;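 further: BJ fibroblasts immortalized with TERT plus LT and ST oncogenes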
# [22] = cytotoxicity toward DRD oncogenic fibroblasts, dose response, cell-based, non-viral oncogenic, luminescence (AID 1934); format: functional; details: Homo sapiens
# [23] = Shn3 3'UTR reporter inhibitors, dose response, cell-based, Clone20 osteoblasts, firefly luciferase, cherry-picked (AID 624132); format: functional;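 further: firefly luciferase luminescence from reporter carrying the Shn3 3'UTR in osteoblasts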
# [24] = HepG2 cell cytotoxicity, dose response, cytotoxicity control for Shn3 inhibitor project, CellTiter-Glo, cherry-picked (AID 624134); format: functional, cell-based
# [25] = control 3'UTR Renilla luciferase suppression, dose response, counter-screen for Shn3 inhibitor project, cell-based, Clone20-Shn3RL, cherry-picked (AID 624133); format: functional
smiles,measurement,setting,value
O=C(O)C1Nc2c(C(F)(F)F)ccc(Cl)c2C2C=CCC12 (stereo not given),EC50,[1],110 µM (active)
same,IC50,[2],> 100 µM (not active)
same,EC50,[3],61.5 µM (active)
same,IC50,[4],> 100 µM (not active)
same,IC50,[5],> 100 µM (not active)
O=C(Nc1ccc(Br)nc1)c1cccc(F)c1,EC50,[6],1.65 µM (active)
O=C(Nc1cc(S(=O)(=O)Nc2ccc(Cl)cc2)ccc1N1CCCCC1)c1ccc(F)cc1,EC50,[7],10.2 µM (active)
same,EC50,Streptococcus [8],150 µM (active)
same,EC50,Streptokinase A,5.17 µM (active)
same,EC50,[9],29.4 µM (active)
same,EC50,[10],21 µM (active)
same,EC50,Streptococcus [11],> 150 µM (not active)
same,AC50,[12],4.98 µM (active)
same,AC50,INS1,8.05 µM (active)
Cc1cc(C)c2c(=O)n(CC(=O)NCCCN3CCOCC3)sc2n1,IC50,[13],21.2 µM (not active)
same,IC50,[14],10.8 µM (active)
same,IC50,[15],46 µM (active)
same,IC50,Insulin-degrading enzyme,7.16 µM (active)
O=C(/C=C/Sc1nc[nH]n1)c1ccc(Cl)cc1,CC50,HeLa,> 3.67 µM (not active)
same,EC50,BJ [16],4.19 µM (active)
same,IC50,Galanin receptor type 2,10.9 µM (not active)
same,EC50,BJ [17],6.44 µM (inconclusive)
same,EC50,[18],1.99 µM (active)
same,CC50,[19],25.4 µM (active)
same,EC50,[20],3.28 µM (active)
same,EC50,BJ [21],12.3 µM (active)
same,EC50,[22],5.81 µM (active)
same,AC50,[23],9.76 µM (active)
same,AC50,[24],31.2 µM (active)
same,AC50,[25],14.4 µM (active)
